# Source: patent US10787442B2, “Modulators of indoleamine 2,3-dioxygenase” (GLAXOSMITHKLINE INTELLECTUAL PROPERTY DEVELOPMENT LIMITED, priority 2016, dated 2020)
# Tested on: human peripheral blood mononuclear cells (PBMC)
# Assay: PBMC cytotoxicity assay (CellTiter-Glo)
# Type: cell-based
# Settings: cytotoxicity in stimulated PBMC, recorded as pCC50
# Experimental: Compounds of the present invention were tested via high-throughput cellular assays utilizing detection of kynurenine via mass spectrometry and cytotoxicity as end-points. […] Compounds with IDO1 inhibitory properties decreased the amount of kynurenine produced by the cells via the tryptophan catabolic pathway. Cellular toxicity due to the effect of compound treatment was measured using CellTiter-Glo® reagent (CTG) (Promega Corporation, Madison, Wis.), which is based on luminescent detection of ATP, an indicator of metabolically active cells.
# In preparation for the assays, test compounds were serially diluted 3-fold in DMSO from a typical top concentration of 1 mM or 5 mM and plated at 0.5 μL in 384-well, polystyrene, clear bottom, tissue culture treated plates with lids (Greiner Bio-One, Kremsmünster, Austria) to generate 11-point dose response curves. Low control wells (0% kynurenine or 100% cytotoxicity) contained either 0.5 μL of DMSO in the presence of unstimulated (−IFN-γ/−LPS) PBMCs for the mass spectrometry assay or 0.5 μL of DMSO in the absence of cells for the cytotoxicity assay, and high control wells (100% kynurenine or 0% cytotoxicity) contained 0.5 μL of DMSO in the presence of stimulated (+IFN-γ/+LPS) PBMCs for both the mass spectrometry and cytotoxicity assays.
# Frozen stocks of PBMCs were washed and recovered in RPMI 1640 medium (Thermo Fisher Scientific, Inc., Waltham, Mass.) supplemented with 10% v/v heat-inactivated fetal bovine serum (FBS) (Thermo Fisher Scientific, Inc., Waltham, Mass.), and 1× penicillin-streptomycin antibiotic solution (Thermo Fisher Scientific, Inc., Waltham, Mass.). The cells were diluted to 1,000,000 cells/mL in the supplemented RPMI 1640 medium. 50 μL of either the cell suspension, for the mass spectrometry assay, or medium alone, for the cytotoxicity assay, were added to the low control wells, on the previously prepared 384-well compound plates, resulting in 50,000 cells/well or 0 cells/well respectively. IFN-γ and LPS were added to the remaining cell suspension at final concentrations of 100 ng/ml and 50 ng/ml respectively, and 50 μL of the stimulated cells were added to all remaining wells on the 384-well compound plates. The plates, with lids, were then placed in a 37° C., 5% CO2 humidified incubator for 2 days.
# Following incubation, the 384-well plates were removed from the incubator and allowed to equilibrate to room temperature for 30 minutes. For the cytotoxicity assay, CellTiter-Glo® was prepared according to the manufacturer's instructions, and 40 μL were added to each plate well. After a twenty minute incubation at room temperature, luminescence was read on an EnVision® Multilabel Reader (PerkinElmer Inc., Waltham, Mass.). For the mass spectrometry assay, 10 μL of supernatant from each well of the compound-treated plates were added to 40 μL of acetonitrile, containing 10 μM of an internal standard for normalization, in 384-well, polypropylene, V-bottom plates (Greiner Bio-One, Kremsmünster, Austria) to extract the organic analytes. Following centrifugation at 2000 rpm for 10 minutes, 10 μL from each well of the acetonitrile extraction plates were added to 90 μL of sterile, distilled H2O in 384-well, polypropylene, V-bottom plates for analysis of kynurenine and the internal standard on the RapidFire 300 (Agilent Technologies, Santa Clara, Calif.) and 4000 QTRAP MS (SCIEX, Framingham, Mass.). MS data were integrated using Agilent Technologies' RapidFire Integrator software, and data were normalized for analysis as a ratio of kynurenine to the internal standard.
row,SMILES,PBMC_TOX PXC50
1,"CC(C)CN(c1ncc([C@H](C)CC(=O)O)cc1Nc1cnc(C#N)nc1)C1CCOCC1 [Example 65, (3R)-3-{5-[(2-cyanopyrimidin-5-yl)amino]-6-[(2-methylpropyl)(oxan-4-yl)amino]pyridin-3-yl}butanoic acid]",<5.0
2,"CC(C)CN(c1ncc([C@H](C)CC(=O)O)cc1Nc1ccc(C(N)=O)nn1)C1CCOCC1 [Example 73, (3R)-3-{5-[(6-carbamoylpyridazin-3-yl)amino]-6-[(2-methylpropyl)(oxan-4-yl)amino]pyridin-3-yl}butanoic acid]",<5.0
3,"COC1CCC(N(CC(C)C)c2ncc(C(C)CC(=O)O)cc2Nc2nc(Cl)ns2)CC1 (stereo not drawn) [Example 46, (3RS)-3-{5-[(3-chloro-1,2,4-thiadiazol-5-yl)amino]-6-[(2-methylpropyl)[(1rs&,4rs&)-4-methoxycyclohexyl]amino]pyridin-3-yl}butanoic acid]",<5.0
4,"CC(C)CN(c1ncc([C@H](C)CC(=O)O)cc1Nc1ccc(Cl)nc1)C1CC(F)(F)C1 [Example 19, (R)-3-(5-((6-chloropyridin-3-yl)amino)-6-((3,3-difluorocyclobutyl)(isobutyl)amino)pyridin-3-yl) butanoic acid]",<5.0
5,"CC(C)CN(c1ncc([C@H](C)CC(=O)O)cc1Nc1nc(C(C)C)ns1)C1CCCCC1 [Example 14, (R)-3-(6-(cyclohexyl(isobutyl)amino)-5-((3-isopropyl-1,2,4-thiadiazol-5-yl)amino)pyridin-3-yl)butanoic acid]",<5.0
6,"CC(C)CN(c1ncc([C@H](C)CC(=O)O)cc1Nc1ccc(Cl)c(Cl)n1)C1CCOCC1 [Example 68, (3R)-3-{5-[(5,6-dichloropyridin-2-yl)amino]-6-[(2-methylpropyl)(oxan-4-yl)amino]pyridin-3-yl}butanoic acid]",<5.0
7,"CC(C)CN(c1ncc([C@H](C)CC(=O)NO)cc1Nc1ccc(Cl)cn1)C1CCOCC1 [Example 78, (3R)-3-{5-[(5-chloropyridin-2-yl)amino]-6-[(2-methylpropyl)(oxan-4-yl)amino]pyridin-3-yl}-N-hydroxybutanamide]",<5.0
8,"CC(C)CN(c1ncc([C@H](C)CC(=O)O)cc1Nc1cnc(Cl)cn1)C1CCOCC1 [Example 77, (3R)-3-{5-[(5-chloropyrazin-2-yl)amino]-6-[(2-methylpropyl)(oxan-4-yl)amino]pyridin-3-yl}butanoic acid]",<5.0
9,"CC(C)CN(c1ncc([C@H](C)CC(=O)NS(=O)(=O)N(C)C)cc1Nc1ccc(Cl)cn1)C1CCOCC1 [Example 80, (3R)-3-{5-[(5-chloropyridin-2-yl)amino]-6-[(2-methylpropyl)(oxan-4-yl)amino]pyridin-3-yl}-N-(dimethylsulfamoyl)butanamide]",<5.0
10,"CC(C)CN(c1ncc([C@H](C)CC(=O)O)cc1Nc1nnc(C(N)=O)s1)C1CCCCC1 [Example 63, (3R)-3-{5-[(5-carbamoyl-1,3,4-thiadiazol-2-yl)amino]-6-[cyclohexyl(2-methylpropyl)amino]pyridin-3-yl}butanoic acid]",<5.0
11,"Cc1nc(Nc2cc([C@H](C)CC(=O)O)cnc2N(CC(C)C)C2CCOCC2)ccc1Cl [Example 69, (3R)-3-{5-[(5-chloro-6-methylpyridin-2-yl)amino]-6-[(2-methylpropyl)(oxan-4-yl)amino]pyridin-3-yl}butanoic acid]",<5.0
12,"CO[C@H]1CC[C@@H](N(CC(C)C)c2ncc([C@H](C)CC(=O)O)cc2Nc2ccc(C#N)nc2)CC1 [Example 23, (R)-3-(5-((6-cyanopyridin-3-yl)amino)-6-(isobutyl((1s,4S)-4-methoxycyclohexyl)amino)pyridin-3-yl)butanoic acid]",<5.0
13,"CC(C)CN(c1ncc([C@H](C)CC(=O)O)cc1Nc1ccc(Cl)c(C#N)n1)C1CCOCC1 [Example 70, (3R)-3-{5-[(5-chloro-6-cyanopyridin-2-yl)amino]-6-[(2-methylpropyl)(oxan-4-yl)amino]pyridin-3-yl}butanoic acid]",<5.0
14,"CC(C)CN(c1ncc([C@H](C)CC(=O)O)cc1Nc1n[nH]c(C(F)(F)F)n1)C1CCOCC1 [Example 42, (3R)-3-{6-[(2-methylpropyl)(oxan-4-yl)amino]-5-{[5-(trifluoromethyl)-1H-1,2,4-triazol-3-yl]amino}pyridin-3-yl}butanoic acid]",<5.0
15,"CO[C@H]1CC[C@H](N(CC(C)C)c2ncc([C@H](C)CC(=O)O)cc2Nc2ccc(Cl)cn2)CC1 [Example 27, (R)-3-(5-((5-chloropyridin-2-yl)amino)-6-(isobutyl((1r,4R)-4-methoxycyclohexyl)amino)pyridin-3-yl)butanoic acid]",<5.0
16,"CC(C)CN(c1ncc([C@H](C)CC(=O)O)cc1Nc1ccc(Cl)nc1)C1CCC(F)(F)CC1 [Example 17, (R)-3-(5-((6-chloropyridin-3-yl)amino)-6-((4,4-difluorocyclohexyl)(isobutyl)amino)pyridin-3-yl)butanoic acid]",<5.0
17,"CC(C)CN(CCC(F)(F)F)c1ncc([C@H](C)CC(=O)O)cc1Nc1ccc(Cl)cn1 [Example 76, (3R)-3-{5-[(5-chloropyridin-2-yl)amino]-6-[(2-methylpropyl)(3,3,3-trifluoropropyl)amino]pyridin-3-yl}butanoic acid]",<5.0
18,"CC(C)CN(c1ncc([C@H](C)CC(=O)O)cc1Nc1nc(Cl)ns1)C1CCOCC1 [Example 39, (3R)-3-{5-[(3-chloro-1,2,4-thiadiazol-5-yl)amino]-6-[(2-methylpropyl)(oxan-4-yl)amino]pyridin-3-yl}butanoic acid]",<5.0
19,"Cc1ccc(CC(=O)Nc2cc([C@H](C)CC(=O)O)cnc2N(CC(C)C)C2CC3(C2)CN(C(=O)OC(C)(C)C)C3)cc1 [Example 55, (3R)-3-[6-({2-[(tert-butoxy)carbonyl]-2-azaspiro[3.3]heptan-6-yl}(2-methylpropyl)amino)-5-[2-(4-methylphenyl)acetamido]pyridin-3-yl]butanoic acid]",<5.0
20,"Cc1nnc(Nc2cc([C@H](C)CC(=O)O)cnc2N(CC(C)C)C2CCCCC2)s1 [Example 45, (3R)-3-{6-[cyclohexyl(2-methylpropyl)amino]-5-[(5-methyl-1,3,4-thiadiazol-2-yl)amino]pyridin-3-yl}butanoic acid]",<5.0
21,"CC(C)CN(CC(C)C)c1ncc([C@H](C)CC(=O)O)cc1Nc1nc(C(C)C)ns1 [Example 54, (3R)-3-{6-[bis(2-methylpropyl)amino]-5-{[3-(propan-2-yl)-1,2,4-thiadiazol-5-yl]amino}pyridin-3-yl}butanoic acid]",<5.0
22,"CC(C)CN(c1ncc([C@H](C)CC(=O)O)cc1Nc1n[nH]c(C(F)(F)F)n1)C1CCCCC1 [Example 10, (R)-3-(6-(cyclohexyl(isobutyl)amino)-5-((5-(trifluoromethyl)-1H-1,2,4-triazol-3-yl)amino)pyridin-3-yl)butanoic acid]",<5.0
23,"CC(C)CN(c1ncc([C@H](C)CC(=O)O)cc1Nc1n[nH]c(C(N)=O)n1)C1CCOCC1 [Example 44, (3R)-3-{5-[(5-carbamoyl-1H-1,2,4-triazol-3-yl)amino]-6-[(2-methylpropyl)(oxan-4-yl)amino]pyridin-3-yl}butanoic acid]",<5.0
24,"CC(C)CN(c1ncc([C@H](C)CC(=O)O)cc1Nc1nc(C(F)(F)F)ns1)C1CCCCC1 [Example 11, (R)-3-(6-(cyclohexyl(isobutyl)amino)-5-((3-(trifluoromethyl)-1,2,4-thiadiazol-5-yl)amino)pyridin-3-yl)butanoic acid]",<5.0
25,"CO[C@H]1CC[C@H](N(CC(C)C)c2ncc([C@H](C)CC(=O)O)cc2Nc2nc(C(F)(F)F)ns2)CC1 [Example 26, (R)-3-(6-(isobutyl((1r,4R)-4-methoxycyclohexyl)amino)-5-((3-(trifluoromethyl)-1,2,4-thiadiazol-5-yl)amino)pyridin-3-yl)butanoic acid]",<5.0
